{
  "source": "the supplement of paper PMC10307832",
  "test_in_all_cases": "relative viability (nuclei count vs DMSO), 5 days (fraction); higher = more cells survive",
  "key": {"[1]": {"compound": "O=S(=O)(c1ccccc1)N(CC(F)(F)F)c1ccc(C(O)(C(F)(F)F)C(F)(F)F)cc1 + C[C@]1(O)C[C@@H](c2nc(-c3ccc4ccc(-c5ccccc5)nc4c3)c3c(N)nccn32)C1 [Linsitinib] (partner 1 µM)", "procedure,_shortened": "(§1)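 Lung cancer cell lines were seeded in 1536-well plates and dosed by pin tool the next day, with either a single drug or a fixed anchor-drug dose combined with five library-drug doses (not always all listed) spaced in √10 steps. Five days later, one step fixed the cells and stained their nuclei (final 0.05% Triton X-100, 1% formaldehyde, 1 ug/ml Hoechst), and nuclei were counted on 4× images. Relative viability is the nuclei count in treated wells divided by the count in vehicle wells, and each value is the median of duplicate plates.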"}, "[2]": {"compound": "O=S(=O)(c1ccccc1)N(CC(F)(F)F)c1ccc(C(O)(C(F)(F)F)C(F)(F)F)cc1 + CC(C)C[C@H](NC(=O)[C@H](Cc1ccccc1)NC(=O)c1cnccn1)B(O)O [Bortezomib] (partner 0.002 µM)", "procedure,_shortened": "as §1"}, "[3]": {"compound": "O=S(=O)(c1ccccc1)N(CC(F)(F)F)c1ccc(C(O)(C(F)(F)F)C(F)(F)F)cc1 + O=C(c1cc(Cc2n[nH]c(=O)c3ccccc23)ccc1F)N1CCN(C(=O)C2CC2)CC1 [Olaparib] (partner 8 µM)", "procedure,_shortened": "as §1"}, "[4]": {"compound": "O=S(=O)(c1ccccc1)N(CC(F)(F)F)c1ccc(C(O)(C(F)(F)F)C(F)(F)F)cc1 + CC1(C)CCC(c2ccc(Cl)cc2)=C(CN2CCN(c3ccc(C(=O)NS(=O)(=O)c4ccc(N[C@H](CCN5CCOCC5)CSc5ccccc5)c(S(=O)(=O)C(F)(F)F)c4)cc3)CC2)C1 [Navitoclax] (partner 0.5 µM)", "procedure,_shortened": "as §1"}, "[5]": {"compound": "O=S(=O)(c1ccccc1)N(CC(F)(F)F)c1ccc(C(O)(C(F)(F)F)C(F)(F)F)cc1 + COc1cc2c(Oc3ccc(NC(=O)C4(C(=O)Nc5ccc(F)cc5)CC4)cc3F)ccnc2cc1OCCCN1CCOCC1 [Foretinib] (partner 0.25 µM)", "procedure,_shortened": "as §1"}, "[6]": {"compound": "C1=CC2=C(C=CC(=C2)C=C3C(=O)NC(=NCC4=CC=CS4)S3)N=C1 [RO-3306] + C[C@]1(O)C[C@@H](c2nc(-c3ccc4ccc(-c5ccccc5)nc4c3)c3c(N)nccn32)C1 [Linsitinib] (partner 1 µM)", "procedure,_shortened": "as §1"}},
  "data": [
    {"cell line": "UMC-11", "values": [
      {"measurement": "relative viability", "setting": "[1]; first compound 0.8 µM", "value": 1.13},
      {"measurement": "relative viability", "setting": "[1]; first compound 2.53 µM", "value": 1.08},
      {"measurement": "relative viability", "setting": "[1]; first compound 8 µM", "value": 1.13},
      {"measurement": "relative viability", "setting": "[2]; first compound 0.8 µM", "value": 0.929},
      {"measurement": "relative viability", "setting": "[2]; first compound 2.53 µM", "value": 0.743},
      {"measurement": "relative viability", "setting": "[2]; first compound 8 µM", "value": 0.972},
      {"measurement": "relative viability", "setting": "[3]; first compound 0.8 µM", "value": 0.355},
      {"measurement": "relative viability", "setting": "[3]; first compound 2.53 µM", "value": 0.459},
      {"measurement": "relative viability", "setting": "[3]; first compound 8 µM", "value": 0.379},
      {"measurement": "relative viability", "setting": "[4]; first compound 0.8 µM", "value": 0.335},
      {"measurement": "relative viability", "setting": "[4]; first compound 2.53 µM", "value": 0.352},
      {"measurement": "relative viability", "setting": "[4]; first compound 8 µM", "value": 0.37},
      {"measurement": "relative viability", "setting": "[5]; first compound 0.8 µM", "value": 1.16},
      {"measurement": "relative viability", "setting": "[5]; first compound 2.53 µM", "value": 1.12},
      {"measurement": "relative viability", "setting": "[5]; first compound 8 µM", "value": 1.08},
      {"measurement": "relative viability", "setting": "[6]; first compound 0.01 µM", "value": 0.998},
      {"measurement": "relative viability", "setting": "[6]; first compound 0.03162 µM", "value": 0.783},
      {"measurement": "relative viability", "setting": "[6]; first compound 0.1 µM", "value": 1.08},
      {"measurement": "relative viability", "setting": "[6]; first compound 0.3162 µM", "value": 1.08},
      {"measurement": "relative viability", "setting": "[6]; first compound 1 µM", "value": 1.03}
    ]}
  ]
}
